The text below walks through data of article PMC12856912, “Structure-Guided Semisynthesis of Blasticidin S–Amicetin Chimeras as Selective Ribosome Inhibitors” (Journal of the American Chemical Society, 2026).

≈ marks a conversion by molar mass, not a printed value. Read-outs that look alike come from different tables or passages of the source.

The subject of data set [1] is Escherichia coli BAA-2452. Description: Antibacterial MIC assay, serial dilution. Type of data set: cell-based. The following applies: BAA2452, read-out: MIC Escherichia coli BAA-2452.
For data set [2], the system named is Methicillin resistant Staphylococcus epidermidis (MRSE) ATCC 35984 NRS101. Briefly: Antibacterial MIC assay, serial dilution. The format is cell-based. The following applies: for Selectivity index (CC50/MIC) MRSE 35984: CC50 Vero cells / MIC; for MIC: Staphylococcus epidermidis, read-out: MIC Methicillin resistant Staphylococcus epidermidis (MRSE) ATCC 35984 NRS101.

The subject of data set [3] is Methicillin resistant S. aureus (MRSA) USA300. Briefly: Antibacterial MIC assay, serial dilution. The format is cell-based, Staphylococcus aureus. The following applies: for Selectivity index (CC50/MIC) MRSA USA300: CC50 Vero cells / MIC; for MIC: Staphylococcus aureus, read-out: MIC Methicillin resistant S. aureus (MRSA) USA300.
The test system of data set [4] is Vancomycin resistant E. faecalis NR-31972 (VRE). Briefly: Antibacterial MIC assay, serial dilution. Type of data set: cell-based, Enterococcus faecalis. The following applies: for Selectivity index (CC50/MIC) VRE NR-31972: CC50 Vero cells / MIC; for MIC: Enterococcus faecalis, VRE, 24 h, read-out: MIC Vancomycin resistant E. faecalis NR-31972 (VRE). The procedure:
(§1) Media and solutions were autoclaved or sterile filtered prior to use and mani pulations were carri ed out in a laminar flow hood. Antibacterial t esting was performed in polypropylene 96-well flat bottom plates. The minimal inhibitory concentration of blasticidin S (1) hydrochloride, methyl ester (3) trihydrochloride, P10 (2) tri-T FA , phenet hyl amide (4) tri -T FA , an d blastimidines M 19– 22, A, 29–32, P 37–40, and C 43–46 (salt forms as described in the te xt) were assessed against Staphylococcus aureus ΔNorA, S. aureus ATCC 6538P, methicillin-resistant S. aureus (MRSA) ATCC 43300, Enterococcus faecalis ATCC 29212, vancomycin- resistant Enterococcus, Klebsiella pneumoniae ATCC 29665, Pseudomonas aeruginosa,and Acinetobacter baumannii ATCC 17978 using serial dilutions. Doxycycline (Gold Bio) as a positive control and the vehicle as a negative control. Stock solutions of each compound were prepared at 2.56 mg/mL in 50% DMSO/water and serially diluted in 50% DMSO/water to create master plates. From the master plates, 10 μ L o f each dilution was applied to test plates using a Bravo automated liquid transfer system (Agilent).
(§2) Bacteria previously grown overnight (37 °C, 120–200 RPM), in LB broth were diluted to an OD600 of 0.05 in cation-adjusted Mueller-Hinton broth (CAMHB), grown to an OD600 of ~0.5, and diluted to an OD600 of 0.004 in CAMHB . These diluted cultures were applied to the test plates (190 μL per test well) resulting in final concentrations of the test compounds of 128–1 μg/ m L.
(§3) Growth controls (wells with inoculated media but no vehicle or test compounds) were included to assess any potential toxicity from the vehicle. Th e plates were in cubated at 37 °C for 16–18 h, except fo r VRE and E. faecalis, which w ere in cub ated at 37 °C fo r 24 h. Inh ibition was determined by measuring the optical density at 600 nm (OD60 0) with a Cytation 3 pl ate read er (BioTek). The optical density measurem ents were no rmalized to the positive and negative controls and the vehicle and growth controls were compared and found to b e indistinguishable, indicating no toxicity from […]
(§4) the vehicle used. The MIC was the lowest concentration that inhibited >90% of growth. Two biological replicates were performed in duplicate. MIC values are reported as a range from […]

The subject of data set [5] is MRSA ATCC 43300. Briefly: Antibacterial MIC assay, serial dilution. The following applies: for Selectivity index (CC50/MIC) MRSA 43300: CC50 Vero cells / MIC; for MIC: Staphylococcus aureus, read-out: MIC MRSA ATCC 43300. The format is cell-based, Staphylococcus aureus. The procedure: as §1, §2, §3, §4
In data set [6] the test system is S. aureus ATCC 6538P. Briefly: Antibacterial MIC assay, serial dilution. The format is cell-based, Staphylococcus aureus. The following applies: for Selectivity index (CC50/MIC) S. aureus 6538P: CC50 Vero cells / MIC; for MIC: Staphylococcus aureus, ATCC 6538P / ATCC 6539P, read-out: MIC S. aureus ATCC 6539P. The procedure:
as §1, §2, §3, §4

The test system of data set [7] is S. aureus ΔNorA. Briefly: Antibacterial MIC assay, serial dilution. Type of data set: cell-based, Staphylococcus aureus. The following applies: for Selectivity index (CC50/MIC) S. aureus ΔNorA: CC50 Vero cells / MIC; for MIC: Staphylococcus aureus, read-out: MIC S. aureus ∆NorA. As to the method:
as §1, §2, §3, §4

Data set [8] deals with Vancomycin resistant Enterococcus faecium NR-31909 (VRE). Briefly: Antibacterial MIC assay, serial dilution. The following applies: for Selectivity index (CC50/MIC) VRE NR-31909: CC50 Vero cells / MIC; for MIC: Enterococcus faecium, VRE, 24 h, read-out: MIC Vancomycin resistant Enterococcus faecium NR-31909 (VRE). The format is cell-based. The procedure:
as §1, §2, §3, §4

In data set [9] the test system is Pseudomonas aeruginosa. Briefly: Antibacterial MIC assay, serial dilution. The format is cell-based. The following applies: for Selectivity index (CC50/MIC) P. aeruginosa: CC50 Vero cells / MIC; for MIC: Pseudomonas aeruginosa, range from biological replicates, read-out: MIC P. aeruginosa. The procedure:
as §1, §2, §3, §4

The test system of data set [10] is Enterococcus faecalis ATCC 29212. Briefly: Antibacterial MIC assay, serial dilution. The following applies: for Selectivity index (CC50/MIC) E. faecalis 29212: CC50 Vero cells / MIC; for MIC: Enterococcus faecalis, ATCC 29112 / ATCC 29212, 24 h, read-out: MIC E. faecalis ATCC 29112. Type of data set: cell-based. As to the method:
as §1, §2, §3, §4

In data set [11] the test system is Klebsiella pneumoniae ATCC 29665. Description: Antibacterial MIC assay, serial dilution. Type of data set: cell-based. The following applies: for Selectivity index (CC50/MIC) K. pneumoniae: CC50 Vero cells / MIC; for MIC: Klebsiella pneumoniae, ATCC29665, range from biological replicates, read-out: MIC K. pneumoniae ATCC-29665. The procedure: as §1, §2, §3, §4

In data set [12] the test system is Acinetobacter baumannii ATCC 17978. Description: Antibacterial MIC assay, serial dilution. The following applies: ATCC17978, range from biological replicates. The format is cell-based. The procedure:
as §1, §2, §3, §4

A short description of data set [13]: Cytotoxicity assay (MTS/PMS). The format is cell-based. The following applies: monkey, 24 h treatment, MTS/PMS, average of three biological replicates, read-out: CC50 against Vero cells. The procedure: The potential cytotoxic eff ect of the test compounds was investigated using Vero cells (monkey kidney epitheli al cells) following est ablished protocols.3 Briefly, Vero cells were plated into 96-well plates supplemented with Dulbecco's Modified Eagle Medium (DMEM) containing 10% fetal bovine serum (FBS). The cells were placed in a humidified 37 °C environment for incubation with 5% CO₂ for 24 h to allow proper adherence and growth. Following the incubation period, the culture medium was replaced with fresh DMEM containing serial dilutions of the test compounds, while the v ehicle alon e w as used as a negative control. The treated cells were incubated for an additional 24 h. To assess cell viability, the MTS/PMS reagent was added to each well and incubat ed for 4 h. A microplate reader (S ynergy H1, BioTek, USA) was used to m easure absorbance at 490 nm. Al l experiments wer e cond ucted usingthree biologi cal replicates .
Ta b l e S2. CC50 valuesa (µg/mL) against Vero cells […]
aValues at which the cell viability (normalized to vehicle control) was 50%. […]

With `COC(=O)[C@H]1O[C@@H](n2ccc(NC(=O)c3ccc(NC(=O)[C@@](C)(N)CO)cc3)nc2=O)C=C[C@@H]1NC(=O)C[C@@H](N)CCN(C)C(=N)N` [Blastimidine M5], the minimum inhibitory concentration (MIC) worked out at 32 µg/mL (≈ 48.7 µM) in [1]; 64 µg/mL (≈ 97.5 µM) in data set [2]; 64 µg/mL (≈ 97.5 µM) in [3]; 64 µg/mL (≈ 97.5 µM) in [4]; 64 µg/mL (≈ 97.5 µM) in [5]; 64 µg/mL (≈ 97.5 µM) in data set [6]. The MIC in data set [7] was 64 µg/mL (≈ 97.5 µM); in data set [8], 16 to 32 µg/mL (≈ 24.4 to 48.7 µM); in data set [9] it was more than 128 µg/mL; in data set [10] it was 64 µg/mL (≈ 97.5 µM); in data set [11], 32 to 64 µg/mL (≈ 48.7 to 97.5 µM); in data set [12] it was more than 128 µg/mL. The “Selectivity index (CC50/MIC) MRSE 35984” value in [2] is on record as 2.3. Besides, in data set [3], the “Selectivity index (CC50/MIC) MRSA USA300” value stood at 2.3. The “Selectivity index (CC50/MIC) VRE NR-31972” value in data set [4] is given as 2.3. Besides, the “Selectivity index (CC50/MIC) MRSA 43300” value in data set [5] worked out at 2.3. In data set [6], the “Selectivity index (CC50/MIC) S. aureus 6538P” value amounted to 2.3. The “Selectivity index (CC50/MIC) S. aureus ΔNorA” value in data set [7] was 2.3. In data set [8], the “Selectivity index (CC50/MIC) VRE NR-31909” value was 6.3. Moreover, the “Selectivity index (CC50/MIC) P. aeruginosa” value in [9] is recorded as less than 1.2. Further, the “Selectivity index (CC50/MIC) E. faecalis 29212” value in [10] worked out at 2.3. The “Selectivity index (CC50/MIC) K. pneumoniae” value in [11] turned out to be 3.5. The CC50 at 24 h in data set [13] (Vero cells (monkey kidney epithelial cells)) amounted to 150 µg/mL (≈ 228 µM).

As to `CN(CC[C@H](N)CC(=O)N[C@H]1C=C[C@H](n2ccc(N)nc2=O)O[C@@H]1C(=O)O)C(=N)N` [Blastimidine C1, blasticidin S], the minimum inhibitory concentration (MIC) is 64 µg/mL (≈ 151 µM) in data set [1]; more than 128 µg/mL in data set [2]; 128 µg/mL (≈ 303 µM) in [3]; 128 µg/mL (≈ 303 µM) in [4]; more than 128 µg/mL in data set [5]; more than 128 µg/mL in [6]. The MIC in [7] is more than 128 µg/mL; in data set [8] it was 128 µg/mL (≈ 303 µM); in data set [9], more than 128 µg/mL; in data set [10] it was 32 µg/mL (≈ 75.7 µM); in data set [11], 128 µg/mL (≈ 303 µM); in [12], more than 128 µg/mL. In data set [2], the “Selectivity index (CC50/MIC) MRSE 35984” value was less than 0.1. Also, the “Selectivity index (CC50/MIC) MRSA USA300” value in [3] is reported as 0.1. The “Selectivity index (CC50/MIC) VRE NR-31972” value in [4] is listed as 0.1. Moreover, in [5], the “Selectivity index (CC50/MIC) MRSA 43300” value is reported as less than 0.1. The “Selectivity index (CC50/MIC) S. aureus 6538P” value in [6] is less than 0.1. The “Selectivity index (CC50/MIC) S. aureus ΔNorA” value in [7] was less than 0.1. Also, the “Selectivity index (CC50/MIC) VRE NR-31909” value in data set [8] amounted to 0.1. The “Selectivity index (CC50/MIC) P. aeruginosa” value in data set [9] was less than 0.1. In addition, the “Selectivity index (CC50/MIC) E. faecalis 29212” value in [10] came out at 0.6. For the same molecule, the “Selectivity index (CC50/MIC) K. pneumoniae” value in data set [11] came to 0.1. Moreover, the CC50 at 24 h in data set [13] came out at 18 µg/mL (≈ 42.6 µM).
